Experimental data as given in PMC4433622 (Cancer research, 2015).
Each block holds one molecule with its values, some of them ahead of it. Peptide text beside a SMILES is read from it. * marks the point of attachment. Cbz = O=C(OCc1ccccc1)*; CH2F = FC*

Assays:
MCF-7 cells = experiment: Apoptosis; assay type: cell-based, human; conditions: for apoptosis (PARP cleavage, nuclear fragmentation), agent alone / apoptosis (PARP cleavage, nuclear fragmentation) together with TNFα: MCF-7 cells, 9 h; for apoptosis (PARP cleavage, nuclear fragmentation) together with TNFα: with TNFα 10 ng/ml, Z-10 7.5 µM, Z-12 5 µM; for PARP cleavage induced by the combination of TNFα and Z compounds: effect of added agent on the combination
MCF-7 xenografts = MCF-7 xenografts in nude mice; assay type: in vivo, Nude mice (BALB/c); conditions: MCF-7 bearing mice, 30 mg/kg oral once a day
[1] = system: IκBα, IKKα/β in MCF-7 cells; experiment: TNFα-induced IκBα degradation and IKKα/β phosphorylation, immunoblotting; assay type: cell-based, human; conditions: for TNFα-induced IKKα/β phosphorylation / TNFα-induced IκBα degradation: TNFα 10 ng/ml, Z-10 7.5 µM, Z-12 5 µM
PPARγ = PPARγ (Homo sapiens, UniProt P37231); experiment: Mammalian one hybrid assay, PPARγ chimeric reporter; assay type: cell-based; conditions: HEK293T cells, 5 µM, 12 h
GR = GR (Homo sapiens, UniProt P04150); experiment: Mammalian one hybrid assay, GR chimeric reporter; assay type: cell-based; conditions: HEK293T cells, 5 µM, 12 h
Gal4-DBD-ERα-LBD = Gal4-DBD-ERα-LBD (Homo sapiens, UniProt P03372); experiment: Mammalian one hybrid assay, Gal4-DBD-ERα-LBD; assay type: cell-based; conditions: HEK293T cells, 5 µM, 12 h
RARγ = RARγ (Homo sapiens, UniProt P13631); experiment: Mammalian one hybrid assay, RARγ chimeric reporter; assay type: cell-based; conditions: HEK293T cells, 5 µM, 12 h
RIP1 in MCF-7 cells = experiment: tRXRα-promoted TNFα-induced RIP1 ubiquitination; assay type: cell-based, human; conditions: 10 µM 1 h, TNFα 20 ng/ml 5 min
Gal4-DBD-RARα-LBD = Gal4-DBD-RARα-LBD (Homo sapiens, UniProt P10276); experiment: Mammalian one hybrid assay, Gal4-DBD-RARα-LBD; assay type: cell-based; conditions: HEK293T cells, 5 µM, 12 h
NFκB = NFκB reporter gene assay; assay type: cell-based
p65 in MCF-7 cells = experiment: TNFα-induced p65 nuclear translocation, immunostaining; assay type: cell-based, human; conditions: 10 µM pretreatment 1 h, TNFα 10 ng/ml 30 min
LXRα = LXRα (Homo sapiens, UniProt Q13133); experiment: Mammalian one hybrid assay, LXRα chimeric reporter; assay type: cell-based; conditions: HEK293T cells, 5 µM, 12 h
Akt = conditions: by preventing the interaction of tRXRα and p85α; cited from earlier work
tRXRα with p85α = experiment: TNFα-induced interaction of tRXRα with p85α; assay type: cell-based
RXRα-LBD [2] = molecular target: T1, RXRα-LBD (Homo sapiens, UniProt P19793); experiment: Surface plasmon resonance; assay type: binding
T1 sequence (P19793 223-462): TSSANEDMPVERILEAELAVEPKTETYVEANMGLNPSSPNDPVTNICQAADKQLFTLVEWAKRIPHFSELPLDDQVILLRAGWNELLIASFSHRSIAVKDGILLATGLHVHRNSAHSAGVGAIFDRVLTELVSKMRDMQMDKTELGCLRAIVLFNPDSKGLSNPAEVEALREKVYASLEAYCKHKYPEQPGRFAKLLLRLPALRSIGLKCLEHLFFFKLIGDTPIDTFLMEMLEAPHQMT

RXRα-LBD [3] = molecular target: T1, RXRα-LBD; experiment: Non-denaturing PAGE of RXRα-LBD oligomers; conditions: Z compounds 10 µM, 9-cis-RA 0.5 µM, 3 h
RXRα homodimer = RXRα homodimer (Homo sapiens, UniProt P19793); experiment: RXRE-luciferase reporter assay; conditions: HEK293T cells, 12 h
Gal4-DBD-RXRα-LBD = molecular target: T2, Gal4-DBD-RXRα-LBD (Homo sapiens, UniProt P19793); experiment: Mammalian one hybrid assay, Gal4-DBD-RXRα-LBD with pG5-luc reporter; assay type: cell-based; conditions: HEK293T cells; for Gal4-DBD-RXRα-LBD transcriptional activity (relative luciferase activity): 10 µM, 12 h
T2 sequence (P19793 227-458 limits assumed): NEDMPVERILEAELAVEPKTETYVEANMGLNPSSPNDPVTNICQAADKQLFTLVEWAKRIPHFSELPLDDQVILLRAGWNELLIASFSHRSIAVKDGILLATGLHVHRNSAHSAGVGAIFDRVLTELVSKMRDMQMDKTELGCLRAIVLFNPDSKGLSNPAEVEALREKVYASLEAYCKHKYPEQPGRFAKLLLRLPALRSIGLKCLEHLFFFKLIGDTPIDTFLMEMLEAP

tRXRα with TRAF2 = tRXRα with TRAF2 (Homo sapiens, UniProt P19793); experiment: TNFα-induced TRAF2/tRXRα complex formation, co-immunoprecipitation; conditions: HEK293T cells, 5 µM 1 h, TNFα 40 ng/ml 15 min
Gal4-DBD-RXRα-LBD/R316E = Gal4-DBD-RXRα-LBD/R316E (Homo sapiens, UniProt P19793, R316E); experiment: Mammalian one hybrid assay, Gal4-DBD-RXRα-LBD/R316E; assay type: cell-based; conditions: HEK293T cells; 9-cis-RA 0.1 µM, Z-10 and Z-12 5 µM
Gal4-DBD-RXRα-LBD C432S = Gal4-DBD-RXRα-LBD C432S (Homo sapiens, UniProt P19793, C432S); experiment: Mammalian one hybrid assay, Gal4-DBD-RXRα-LBD C432S mutant; assay type: cell-based; conditions: HEK293T cells; 9-cis-RA 0.1 µM, Z-10 and Z-12 5 µM
RXRα-LBD [4] = molecular target: T1, RXRα-LBD; experiment: Ligand competition assay with [3H]9-cis-RA; assay type: binding
RXRα-LBD [5] = molecular target: T1, RXRα-LBD; experiment: Differential scanning calorimetry; assay type: binding
SEC = molecular target: the molecule itself; experiment: SEC

RARγ, sequence (P13631 185-419 limits assumed, species assumed): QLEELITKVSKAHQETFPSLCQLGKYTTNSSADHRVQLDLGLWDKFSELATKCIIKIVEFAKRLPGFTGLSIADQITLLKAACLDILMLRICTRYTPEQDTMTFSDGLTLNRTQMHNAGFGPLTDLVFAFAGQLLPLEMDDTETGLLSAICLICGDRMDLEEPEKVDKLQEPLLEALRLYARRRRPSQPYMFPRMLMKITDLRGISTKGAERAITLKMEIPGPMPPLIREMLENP
RXRα homodimer, sequence (P19793 whole entry, the tested form may be a part): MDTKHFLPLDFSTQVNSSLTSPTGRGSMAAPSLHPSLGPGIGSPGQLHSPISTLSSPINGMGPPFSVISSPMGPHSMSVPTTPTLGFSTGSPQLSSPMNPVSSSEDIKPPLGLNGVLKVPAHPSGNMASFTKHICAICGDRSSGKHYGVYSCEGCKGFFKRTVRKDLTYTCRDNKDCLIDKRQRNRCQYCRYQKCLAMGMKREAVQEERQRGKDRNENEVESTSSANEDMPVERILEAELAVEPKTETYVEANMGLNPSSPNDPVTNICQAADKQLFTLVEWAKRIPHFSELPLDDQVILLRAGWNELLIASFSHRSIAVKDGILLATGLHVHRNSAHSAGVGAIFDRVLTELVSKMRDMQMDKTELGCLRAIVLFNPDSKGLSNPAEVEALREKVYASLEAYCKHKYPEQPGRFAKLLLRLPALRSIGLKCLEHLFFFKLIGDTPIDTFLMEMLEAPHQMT
GR, sequence (P04150 524-758 limits assumed): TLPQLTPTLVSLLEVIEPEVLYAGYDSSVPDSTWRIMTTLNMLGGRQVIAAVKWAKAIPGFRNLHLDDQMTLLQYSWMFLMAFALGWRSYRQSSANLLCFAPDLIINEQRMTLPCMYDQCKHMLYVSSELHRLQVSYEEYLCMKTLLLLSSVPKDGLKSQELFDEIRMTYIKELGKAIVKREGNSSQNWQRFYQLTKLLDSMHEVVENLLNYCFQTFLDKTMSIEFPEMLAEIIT
LXRα, sequence (Q13133 209-447 limits assumed): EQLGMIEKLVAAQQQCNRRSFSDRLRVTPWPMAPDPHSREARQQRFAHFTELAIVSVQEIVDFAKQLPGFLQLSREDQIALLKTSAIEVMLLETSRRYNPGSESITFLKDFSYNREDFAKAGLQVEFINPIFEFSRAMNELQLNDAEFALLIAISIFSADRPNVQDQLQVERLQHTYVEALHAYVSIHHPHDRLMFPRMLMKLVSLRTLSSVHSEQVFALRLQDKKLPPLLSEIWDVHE
Gal4-DBD-ERα-LBD, sequence (P03372 311-547 limits assumed): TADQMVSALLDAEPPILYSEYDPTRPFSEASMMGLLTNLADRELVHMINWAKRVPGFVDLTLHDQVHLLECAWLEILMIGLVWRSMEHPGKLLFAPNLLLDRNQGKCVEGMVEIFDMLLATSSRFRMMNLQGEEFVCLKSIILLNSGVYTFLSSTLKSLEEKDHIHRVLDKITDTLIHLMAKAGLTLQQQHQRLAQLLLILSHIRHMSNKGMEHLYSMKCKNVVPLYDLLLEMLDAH
PPARγ, sequence (P37231 238-503 limits assumed, species assumed): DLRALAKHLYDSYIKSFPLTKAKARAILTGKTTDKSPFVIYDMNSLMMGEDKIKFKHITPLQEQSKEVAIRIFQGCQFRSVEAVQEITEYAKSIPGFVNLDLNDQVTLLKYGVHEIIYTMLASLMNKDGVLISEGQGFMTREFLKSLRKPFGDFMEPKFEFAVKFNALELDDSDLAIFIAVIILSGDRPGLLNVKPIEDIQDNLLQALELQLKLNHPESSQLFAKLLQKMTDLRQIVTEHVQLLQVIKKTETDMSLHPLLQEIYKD
Gal4-DBD-RARα-LBD, sequence (P10276 183-417 limits assumed): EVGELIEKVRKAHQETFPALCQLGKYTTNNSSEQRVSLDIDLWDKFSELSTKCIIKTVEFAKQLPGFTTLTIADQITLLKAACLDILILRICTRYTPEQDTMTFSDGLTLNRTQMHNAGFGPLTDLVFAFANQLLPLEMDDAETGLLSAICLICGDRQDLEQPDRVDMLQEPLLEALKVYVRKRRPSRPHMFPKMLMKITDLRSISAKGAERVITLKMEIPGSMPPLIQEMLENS
Gal4-DBD-RXRα-LBD C432S, sequence (P19793 227-458 C432S limits assumed): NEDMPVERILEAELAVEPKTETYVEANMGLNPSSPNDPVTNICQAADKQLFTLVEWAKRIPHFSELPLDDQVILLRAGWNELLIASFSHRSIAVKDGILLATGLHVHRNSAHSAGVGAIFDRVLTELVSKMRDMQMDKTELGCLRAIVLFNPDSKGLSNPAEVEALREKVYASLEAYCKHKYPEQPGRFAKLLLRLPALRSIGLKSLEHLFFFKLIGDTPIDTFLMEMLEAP
Gal4-DBD-RXRα-LBD/R316E, sequence (P19793 227-458 R316E limits assumed): as the sequence (P19793 227-458 C432S limits assumed) above, with R90E, S206C counted along it
tRXRα with TRAF2, sequence (P19793 81-462 limits assumed): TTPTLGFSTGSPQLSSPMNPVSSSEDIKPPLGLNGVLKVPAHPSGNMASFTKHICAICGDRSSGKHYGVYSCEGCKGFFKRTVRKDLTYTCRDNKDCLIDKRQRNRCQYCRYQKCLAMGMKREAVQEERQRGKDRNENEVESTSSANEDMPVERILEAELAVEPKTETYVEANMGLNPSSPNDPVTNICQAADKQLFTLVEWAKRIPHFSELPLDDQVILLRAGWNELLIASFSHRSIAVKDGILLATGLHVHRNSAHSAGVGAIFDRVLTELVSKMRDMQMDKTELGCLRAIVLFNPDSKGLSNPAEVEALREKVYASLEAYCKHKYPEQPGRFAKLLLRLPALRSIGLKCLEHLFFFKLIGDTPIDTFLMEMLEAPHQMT

Molecule: TNFα
- apoptosis (PARP cleavage, nuclear fragmentation), agent alone (MCF-7 cells): did not happen

Molecule: O=[N+]([O-])/C=C/c1cccc2ccccc12 [Z-10, (E)-1-(2-nitrovinyl)naphthalene]
- tumor growth and apoptosis of cancer cells, compound alone (MCF-7 xenografts): Tumor growth inhibition and extensive apoptosis of cancer cells
- inhibitory effect on TNFα-induced IκBα degradation, MCF-7 versus H460 cells ([1]; 7.5 µM 1 h, TNFα 30 min, MCF-7 express higher RXRα and tRXRα than H460): stronger in MCF-7 cells
- TNFα-induced IKKα/β phosphorylation ([1]; MCF-7 cells): significantly inhibited
- TNFα-induced IκBα degradation ([1]; MCF-7 cells): significantly inhibited
- activation of PPARγ chimeric reporter (PPARγ): neither of them significantly activated
- activation of GR chimeric reporter (GR): neither of them significantly activated
- activation of ERα chimeric reporter (Gal4-DBD-ERα-LBD): neither of them significantly activated
- activation of RARγ chimeric reporter (RARγ): neither of them significantly activated
- RXRα/Δ80-promoted TNFα-induced RIP1 ubiquitination (RIP1 in MCF-7 cells): largely blocked
- activation of RARα chimeric reporter (Gal4-DBD-RARα-LBD): neither of them significantly activated
- apoptosis (PARP cleavage, nuclear fragmentation), agent alone (MCF-7 cells): did not happen
- apoptosis (PARP cleavage, nuclear fragmentation) together with TNFα (MCF-7 cells): significant apoptosis
- inhibition of NFκB activation by TNFα (reporter gene assay) (NFκB): dose-dependently inhibited
- TNFα-induced p65 nuclear translocation (p65 in MCF-7 cells): significantly inhibited
- activation of LXRα chimeric reporter (LXRα): neither of them significantly activated

Molecule: COC(=O)C[C@H](NC(=O)[C@H](C)NC(=O)[C@@H](NC(=O)OCc1ccccc1)C(C)C)C(=O)CF [Z-VAD-FMK] (Cbz-Val-Ala-Asp(OMe)-CH2F)
- PARP cleavage induced by the combination of TNFα and Z compounds (MCF-7 cells): completely blocked

Molecule: CC1=C(CC(=O)O)c2cc(F)ccc2/C1=C\c1ccc(C(C)C)cc1 [K-80003]
- inhibition of TNFα-induced Akt activation (Akt): could inhibit

- Kd (RXRα-LBD [2]): 1950 nM
- RXRα-LBD tetramer/dimer formation on native gel (RXRα-LBD [3]): induced homodimer formation
- transactivation of RXRα homodimer (RXRE-luciferase) (RXRα homodimer; 5 µM): failed to induce the transactivation
- RXRα transactivation, dose dependence (Gal4-DBD-RXRα-LBD): dose-dependently activated
- RXRα transactivation relative to activity of 0.1 µM 9-cis-RA (Gal4-DBD-RXRα-LBD; compound at 10 µM, % of activity of 0.1 µM 9-cis-RA): about 50%
- TNFα-induced interaction of tRXRα with TRAF2 (tRXRα with TRAF2): strongly inhibited
- activation of PPARγ chimeric reporter (PPARγ): neither of them significantly activated
- activation of GR chimeric reporter (GR): neither of them significantly activated
- activation of ERα chimeric reporter (Gal4-DBD-ERα-LBD): neither of them significantly activated
- activation of RARγ chimeric reporter (RARγ): neither of them significantly activated
- transactivation of Gal4-DBD-RXRα-LBD/R316E (Gal4-DBD-RXRα-LBD/R316E): strongly activated
- activation of Gal4-DBD-RXRα-LBD with Cys432 mutated to Ser (Gal4-DBD-RXRα-LBD C432S): completely incapacitated
- activation of RARα chimeric reporter (Gal4-DBD-RARα-LBD): neither of them significantly activated
- IC50 (RXRα-LBD [4]): 810 nM
- activation of LXRα chimeric reporter (LXRα): neither of them significantly activated
- Tm values of RXRα-LBD protein (DSC) (RXRα-LBD [5]): shifted higher
Molecule: O=[N+]([O-])/C=C/c1c2ccccc2cc2ccccc12 [Z-12, (E)-9-(2-nitrovinyl)anthracene]
- inhibition of TNFα-induced interaction of tRXRα with p85α (tRXRα with p85α): could not inhibit
- tumor growth and apoptosis of cancer cells, compound alone (MCF-7 xenografts): Tumor growth inhibition and extensive apoptosis of cancer cells
- effect on 9-cis-RA-induced RXRα homodimer transactivation (RXRα homodimer; 5 µM with 9-cis-RA 0.1 µM): inhibited 9-cis-RA-induced transactivation
- TNFα-induced IKKα/β phosphorylation ([1]; MCF-7 cells): significantly inhibited
- TNFα-induced IκBα degradation ([1]; MCF-7 cells): significantly inhibited
- effect on inhibiting TNFα-induced IκBα degradation when TRAF2 expression was suppressed by siRNA ([1]; MCF-7 cells, TRAF2 siRNA 36 h, TNFα 10 ng/ml 30 min): dramatically reduced
- apoptosis (PARP cleavage, nuclear fragmentation), agent alone (MCF-7 cells): did not happen
- apoptosis (PARP cleavage, nuclear fragmentation) together with TNFα (MCF-7 cells): significant apoptosis
- TNFα-induced p65 nuclear translocation (p65 in MCF-7 cells): significantly inhibited

Molecule: CCCCCOc1cc2c(cc1-c1cc(/C=C/C(=O)O)ccc1O)C(C)(C)CCC2(C)C [UVI3003]
- TNFα-induced IκBα degradation ([1]; MCF-7 cells): did not show apparent effects
- apoptosis (PARP cleavage, nuclear fragmentation) together with TNFα (MCF-7 cells): little effect
- PARP cleavage induced by the combination of TNFα and Z compounds (MCF-7 cells): able to suppress

Molecule: Cc1ccc(/C=C/[N+](=O)[O-])cc1 [Z-1, (E)-1-methyl-4-(2-nitrovinyl)benzene]
- Gal4-DBD-RXRα-LBD transcriptional activity (relative luciferase activity) (Gal4-DBD-RXRα-LBD): selectively activated

Molecule: CC1=C(/C=C/C(C)=C\C=C\C(C)=C\C(=O)O)C(C)(C)CCC1 [9-cis-RA, 9-cis-retinoic acid]
- TNFα-induced IκBα degradation ([1]; MCF-7 cells): did not show apparent effects
- apoptosis (PARP cleavage, nuclear fragmentation) together with TNFα (MCF-7 cells): little effect
- PARP cleavage induced by the combination of TNFα and Z compounds (MCF-7 cells): able to suppress

- Gal4-DBD-RXRα-LBD transcriptional activity (relative luciferase activity) (Gal4-DBD-RXRα-LBD): unable to activate RXRα
- IC50 (RXRα-LBD [4]): 330 nM
- Tm values of RXRα-LBD protein (DSC) (RXRα-LBD [5]): shifted higher
Molecule: O=[N+]([O-])/C=C/c1ccc2ccccc2c1 [Z-11, (E)-2-(2-nitrovinyl)naphthalene]
- RXRα-LBD tetramer/dimer formation on native gel (RXRα-LBD [3]): induced higher levels of RXRα-LBD oligomerization

Molecule: CD3254
- TNFα-induced IκBα degradation ([1]; MCF-7 cells): did not show apparent effects
- apoptosis (PARP cleavage, nuclear fragmentation) together with TNFα (MCF-7 cells): little effect
- PARP cleavage induced by the combination of TNFα and Z compounds (MCF-7 cells): able to suppress

B1: RXRα-LBD/C432W (domain or fragment, human, UniProt P19793 223-462, looked up)
chain: TSSANEDMPVERILEAELAVEPKTETYVEANMGLNPSSPNDPVTNICQAADKQLFTLVEWAKRIPHFSELPLDDQVILLRAGWNELLIASFSHRSIAVKDGILLATGLHVHRNSAHSAGVGAIFDRVLTELVSKMRDMQMDKTELGCLRAIVLFNPDSKGLSNPAEVEALREKVYASLEAYCKHKYPEQPGRFAKLLLRLPALRSIGLKWLEHLFFFKLIGDTPIDTFLMEMLEAPHQMT
- stoichiometry N (SEC): 2
